“Also recorded” adds a separate entry of the source.

In assay [1] the test system is carotid arteries (intimal thickening). Kind of assay: Collar-induced intimal thickening in rabbit carotid arteries after adventitial plasmid/liposome gene transfer. The class given is in vivo, New Zealand White rabbits. The following applies: L-NAME 70 mg/kg/d in drinking water; 7 days after gene transfer. An excerpt:
The model preserved EC integrity and permitted direct extravascular gene transfer without any intravascular manipulation.
Gene Transfer: Intimal thickening was induced in the carotid arteries of thirty-two New Zealand White rabbits by inserting an inert silicone collar around the arteries under a general anaesthesia (Booth et al, Atherosclerosis (1989) 76:257-268). […] No intravascular manipulations were involved in any steps of the studies. […] Plasmids used for the studies were isolated from E. coli cultures (DH5α) using Qiagen Mega columns and purified using three phenol/chloroform extractions and one ethanol precipitation (Ausubel et al, eds. Current Protocols in Molecular Biology. New York, N.Y.: Greene Publishing Associates and John Wiley & Sons (1991) 4.2.3-4.2.4) were adjusted to 1 μg/μl and analysed to be free of any microbiological or endotoxin contamination (Limulus assay, detection limit 0.2 ng). […] Differences in the intima/media thickness ratios between the groups were analysed by ANOVA, followed by modified t-test (*p<0.05). […]
Gene transfer was carried out as described in Example 1.1. […] Animals were sacrificed 7 days after gene transfer and analysed for the intima/media thickness ratio and histology as described above (Ylä-Herttuala et al, Arteriosclerosis (1986) 6: 230-236; Ylä-Herttuala et al (1990) supra). […]

The subject of assay [2] is NO production in HUVEC. Kind of assay: Nitrite (NO) production in HUVEC, capillary detection method. The class given is cell-based, human.
Protocol: Nitrite production was measured using capillary detection method (Leone et al, in Methods in Nitric Oxide Research, Feelisch and Stanler, eds. John Wiley & Sons, New York (1996) 499-508).
In assay [3] the test system is 205 kD protein corresponding to VEGF receptor. Kind of assay: Anti-phosphotyrosine immunoprecipitation/immunoblot in HUVEC. The settings on record: 100 μM L-NAME 1 h pretreatment; 10 ng/ml VEGF 10 min. The class given is cell-based, human. On the procedure:
In some experiments, cells were pretreated for 1 h with 100 μM L-NAME and subsequently treated either with or without. […] The medium was removed and cells were rapidly lysed at 4° C. by addition of 10 mM Tris/HCl (pH 7.6), 5 mM EDTA, 50 mM NaCl, 30 mM sodium pyrophosphate, 50 mM NaF, 0.1 mM Na3VO4, 1 mM PMSF and 1% Triton X-100 (lysis buffer). Lysates were clarified by centrifugation at 15000×g for 10 min, and immunoprecipitations were performed by incubating clarified lysates with PY20 anti-phosphotyrosine mAb for 2 h at […] Immunoprecipitates were collected by incubating lysates for a further 1 hour with protein A-agarose. Immunoprecipitates were washed three times with lysis buffer and proteins were then extracted with 2×SDS-PAGE sample buffer. After SDS-PAGE, immunoprecipitated proteins were transferred to membranes and then immunoblotted with PY20 mAb.
In general terms: A western blot detects proteins with antibodies after separation by electrophoresis.

`COC(=O)[C@@H](N)CCCNC(=N)N[N+](=O)[O-]` [L-NAME]: the “effect of L-NAME on the difference in intimal thickening between VEGF- and lacZ-transfected arteries” value in assay [1] was “abolished”. In addition, the “effect of L-NAME on VEGF-induced NO production” value in assay [2] (100 μM L-NAME) is “completely abolished”. Besides, in assay [2] (L-NAME 100 μM pretreatment 1 hour, then 25 ng/ml VEGF 10 minutes), the “nitrite production level after L-NAME” value was approximately 17 µM. Moreover, the “effect of L-NAME on VEGF-induced phosphorylation” value in assay [3] was “abolishes the response to VEGF; also recorded: completely abolished”.

Source of the values: US7320679B2, “Therapeutic use of growth factor, and delivery device, especially for the treatment of intimal hyperplasia” (Ark Therapeutics, Ltd., priority 1996, dated 2008).
